Experimental findings from patent US20160244436A1, “NOVEL FUNCTIONALIZED 5-(PHENOXYMETHYL)-1,3-DIOXANE ANALOGS EXHIBITING CYTOCHROME P450 INHIBITION AND THEIR METHOD OF USE” (CORTENDO AB (PUBL), priority 2013, published 2016) are described below.

In one data set the target is T1, recombinant CYP-17 (Homo sapiens, UniProt P05093).
T1 construct: expressed in transfected cells; host or cells: AD293
T1 sequence (P05093 1-508): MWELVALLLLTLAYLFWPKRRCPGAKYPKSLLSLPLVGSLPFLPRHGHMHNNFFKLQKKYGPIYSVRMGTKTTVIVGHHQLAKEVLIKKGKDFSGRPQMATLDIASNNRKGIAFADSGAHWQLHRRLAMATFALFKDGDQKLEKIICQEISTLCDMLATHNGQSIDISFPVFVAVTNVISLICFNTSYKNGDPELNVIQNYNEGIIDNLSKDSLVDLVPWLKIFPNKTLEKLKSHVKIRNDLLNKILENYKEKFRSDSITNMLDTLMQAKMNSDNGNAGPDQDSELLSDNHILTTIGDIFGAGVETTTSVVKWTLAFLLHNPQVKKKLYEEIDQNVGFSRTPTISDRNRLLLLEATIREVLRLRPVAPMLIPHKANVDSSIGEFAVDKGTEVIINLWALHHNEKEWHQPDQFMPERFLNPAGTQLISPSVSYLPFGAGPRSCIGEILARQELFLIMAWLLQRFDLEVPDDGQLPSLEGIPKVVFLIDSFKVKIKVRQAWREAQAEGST
In words: Cyp17 assay: AD293 cells over-expressing recombinant CYP-17, 3H-acetic acid release from [21-3H] 17α-hydroxyl-Pregnenolone. The data set is classed as cell-based. The protocol:
Cyp17 assay protocol: AD293 cells that stably over-express recombinant CYP-17 were seeded in 96 well plates coated with poly D-lysine (15,000 cell per well) and incubated at 37° C. for 24 hours in Dulbecco's Modified Eagle Medium (DMEM) with Fetal Bovine Serum (FBS) that is stripped of hormones by charcoal treatment. The media is then removed, the cells are washed once with Phosphate buffer saline solution, and 50 μL Dulbecco's Modified Eagle Medium (DMEM) with Fetal Bovine Serum (FBS) that is stripped of hormones by charcoal treatment is added. Compounds of the disclosure are then added to the wells in eight concentration spanning 10 μM to 4.5 nM, and the plates are incubated for an additional 60 minutes at 37° C. [21-^3H] 17α-hydroxyl-Pregnenolone is then added (50 nCi per well, 31.25 nM) and the plates are incubated for an additional 4 hours at 37° C. The media is then collected, 200 μL, of chloroform is added, and the mixture is shaken for 1 hour. The aqueous layer is then separated and analyzed for the presence of ^3H-acetic acid using a Perkin Elmer Topcount NXT to determine IC50s of the compounds of the disclosure.

In another data set the target is T2, recombinant CYP-11 (Homo sapiens, UniProt P15538).
T2 construct: expressed in transfected cells; host or cells: AD293
T2 sequence (P15538 25-503): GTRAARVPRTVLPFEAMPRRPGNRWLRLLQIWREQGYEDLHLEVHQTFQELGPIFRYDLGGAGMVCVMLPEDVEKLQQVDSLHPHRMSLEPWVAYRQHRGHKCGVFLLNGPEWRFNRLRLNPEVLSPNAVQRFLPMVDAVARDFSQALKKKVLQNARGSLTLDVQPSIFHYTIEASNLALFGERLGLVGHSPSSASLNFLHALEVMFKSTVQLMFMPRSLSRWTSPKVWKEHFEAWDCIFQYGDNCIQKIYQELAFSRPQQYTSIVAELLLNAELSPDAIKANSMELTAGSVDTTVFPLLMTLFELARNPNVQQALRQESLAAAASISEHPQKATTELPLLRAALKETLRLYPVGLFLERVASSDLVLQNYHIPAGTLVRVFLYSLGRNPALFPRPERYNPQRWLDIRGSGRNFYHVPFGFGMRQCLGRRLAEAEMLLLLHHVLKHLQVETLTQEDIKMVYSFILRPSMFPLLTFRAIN
In words: Cyp11 assay: AD293 cells over-expressing recombinant CYP-11, cortisol formation from 11-deoxycortisol by LC/MS. Type of data set: cell-based. On the procedure: Cyp11 assay protocol: AD293 cells that stably over-express recombinant CYP-11 were seeded in 96 well plates coated with poly D-lysine (15,000 cell per well) and incubated at 37° C. for 24 hours in Dulbecco's Modified Eagle Medium (DMEM) with Fetal Bovine Serum (FBS) that is stripped of hormones by charcoal treatment. The media is then removed, the cells are washed once with Phosphate buffer saline solution, and 50 μL Dulbecco's Modified Eagle Medium (DMEM) with Fetal Bovine Serum (FBS) that is stripped of hormones by charcoal treatment is added. Compounds of the disclosure are then added to the wells in eight concentration spanning 10 μM to 4.5 nM, and the plates are incubated for an additional 60 minutes at 37° C. 11-deoxycortisol is then added (2.0 μM) and the plates are incubated for an additional 12 hours at 37° C. After incubation, 50 uL of the supernatant (medium) is transferred into a fresh plate and 150 uL of an acetonitrile solution containing 200 ng/ml of Telmisartan is added. The sample is mixed and then placed in a centrifuge at 2000 rpm for 5 minutes. 100 uL of the supernatant is transferred into a fresh 96 well deep well plate, 100 uL of 1:1 methanol:water was added, the solution was mixed and then analyzed by LC/MS for the presence of cortisol using an Agilent 1200 RRLC/ABSCIEX API4000 LC-MS or Shimadzu Prominance/ABSCIEX API4000 LC-MS to determine IC5os of the compounds of the disclosure.

The next data set deals with T3, Cyp19 (Homo sapiens, UniProt P11511).
T3 sequence (P11511 1-503): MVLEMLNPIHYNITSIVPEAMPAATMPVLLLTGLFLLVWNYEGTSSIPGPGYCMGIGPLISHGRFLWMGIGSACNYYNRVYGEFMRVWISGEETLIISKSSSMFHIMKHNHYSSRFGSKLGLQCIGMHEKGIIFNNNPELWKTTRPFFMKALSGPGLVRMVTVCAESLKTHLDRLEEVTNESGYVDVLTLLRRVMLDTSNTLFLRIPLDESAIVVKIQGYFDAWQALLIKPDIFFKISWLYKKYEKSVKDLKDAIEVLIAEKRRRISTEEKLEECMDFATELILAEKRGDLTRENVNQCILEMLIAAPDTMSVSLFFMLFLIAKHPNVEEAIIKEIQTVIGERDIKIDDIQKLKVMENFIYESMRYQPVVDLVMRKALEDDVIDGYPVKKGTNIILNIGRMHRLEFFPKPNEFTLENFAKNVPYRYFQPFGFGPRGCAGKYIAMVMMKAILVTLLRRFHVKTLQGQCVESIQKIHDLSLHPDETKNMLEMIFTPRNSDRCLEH
In words: Cyp19 off-target counter screen. The data set is classed as biochemical. As to conditions: off-target enzyme. (In general: Counterscreens check selectivity or assay interference.)

In another data set the target is Cyp3A4 (Homo sapiens, UniProt P08684). The data set can be described thus: Cyp3A4 off-target counter screen. Type of data set: in vitro ADME. The note with it: off-target enzyme.
Chain of Cyp3A4 (P08684 whole entry): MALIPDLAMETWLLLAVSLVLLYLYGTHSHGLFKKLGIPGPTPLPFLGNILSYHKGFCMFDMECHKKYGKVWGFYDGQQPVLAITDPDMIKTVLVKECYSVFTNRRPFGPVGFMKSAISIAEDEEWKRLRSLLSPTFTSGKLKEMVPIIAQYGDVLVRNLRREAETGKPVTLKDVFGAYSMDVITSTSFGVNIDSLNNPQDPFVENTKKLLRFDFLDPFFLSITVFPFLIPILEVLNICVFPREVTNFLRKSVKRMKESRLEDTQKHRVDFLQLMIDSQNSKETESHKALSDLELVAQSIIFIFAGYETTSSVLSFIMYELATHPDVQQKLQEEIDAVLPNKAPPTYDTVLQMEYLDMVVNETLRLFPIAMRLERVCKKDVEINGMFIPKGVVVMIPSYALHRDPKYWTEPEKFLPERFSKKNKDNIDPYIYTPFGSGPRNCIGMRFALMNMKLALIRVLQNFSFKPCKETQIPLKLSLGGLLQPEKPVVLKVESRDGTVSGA
The test system of data set [1] is Bile Acid (Cyp7A surrogate). In words: Bile acid secretion / synthesis inhibition (Cyp7A surrogate). Type of data set: cell-based.

The IC50 is the concentration at which inhibition is half-maximal. In the case of `CC(=O)N1CCN(c2ccc(CO[C@H]3CO[C@](Cn4ccnc4)(c4ccc(Cl)cc4Cl)OC3)cc2)CC1` [drawing 112], the half-maximal inhibitory concentration (IC50) was 8 nM on recombinant CYP-17; 12 nM on recombinant CYP-11; 350 nM against Cyp19; 109 nM on Cyp3A4; 880 nM in data set [1].
